Our source for the IC50 values is patent US10913742B2, “Oxadiazolones as transient receptor potential channel inhibitors” (Genentech, Inc., priority 2017, dated 2021).

This assay has as its target human TRPA1 (Homo sapiens (Human), UniProt O75762). Nature of the assay: hTRPA1 CHO Ca2+ FLIPR assay (block of cinnamaldehyde induced calcium influx). The class given is cell-based. Conditions: CHO cells expressing TRPA1; 75 uM cinnamaldehyde; Hill coefficient fixed to 1.5; read-out: hTRPA1 (hTRPA1 CHO Ca2+ MAX EVO (IC50)). The protocol:
CHO cells expressing TRPA1 were plated into 384-well plates, incubated overnight at 37° C., and loaded with BD calcium indicator dye for 1 hr at 37° C. followed by 15 minutes at room temperature. The assay buffer was Hank's Balanced Salt Solution (HBSS) containing 20 mM HEPES (pH readjusted to 7.4) along with 0.02% BSA.
Following dye load and plate cool down, compounds were added to the cells using FLIPR Tetra. Plates were then incubated with compounds for 20 minutes at room temperature prior to adding agonist.
The IC50 results were fit with a standard Hill function, keeping the Hill coefficient (n) fixed to 1.5. Fixing the Hill coefficient will generally reduce variability of the IC50 determination. The IC50 results were individually examined to make sure the MIN and MAX points were set correctly prior to validation of the results.

Sequence of human TRPA1 (O75762 whole entry): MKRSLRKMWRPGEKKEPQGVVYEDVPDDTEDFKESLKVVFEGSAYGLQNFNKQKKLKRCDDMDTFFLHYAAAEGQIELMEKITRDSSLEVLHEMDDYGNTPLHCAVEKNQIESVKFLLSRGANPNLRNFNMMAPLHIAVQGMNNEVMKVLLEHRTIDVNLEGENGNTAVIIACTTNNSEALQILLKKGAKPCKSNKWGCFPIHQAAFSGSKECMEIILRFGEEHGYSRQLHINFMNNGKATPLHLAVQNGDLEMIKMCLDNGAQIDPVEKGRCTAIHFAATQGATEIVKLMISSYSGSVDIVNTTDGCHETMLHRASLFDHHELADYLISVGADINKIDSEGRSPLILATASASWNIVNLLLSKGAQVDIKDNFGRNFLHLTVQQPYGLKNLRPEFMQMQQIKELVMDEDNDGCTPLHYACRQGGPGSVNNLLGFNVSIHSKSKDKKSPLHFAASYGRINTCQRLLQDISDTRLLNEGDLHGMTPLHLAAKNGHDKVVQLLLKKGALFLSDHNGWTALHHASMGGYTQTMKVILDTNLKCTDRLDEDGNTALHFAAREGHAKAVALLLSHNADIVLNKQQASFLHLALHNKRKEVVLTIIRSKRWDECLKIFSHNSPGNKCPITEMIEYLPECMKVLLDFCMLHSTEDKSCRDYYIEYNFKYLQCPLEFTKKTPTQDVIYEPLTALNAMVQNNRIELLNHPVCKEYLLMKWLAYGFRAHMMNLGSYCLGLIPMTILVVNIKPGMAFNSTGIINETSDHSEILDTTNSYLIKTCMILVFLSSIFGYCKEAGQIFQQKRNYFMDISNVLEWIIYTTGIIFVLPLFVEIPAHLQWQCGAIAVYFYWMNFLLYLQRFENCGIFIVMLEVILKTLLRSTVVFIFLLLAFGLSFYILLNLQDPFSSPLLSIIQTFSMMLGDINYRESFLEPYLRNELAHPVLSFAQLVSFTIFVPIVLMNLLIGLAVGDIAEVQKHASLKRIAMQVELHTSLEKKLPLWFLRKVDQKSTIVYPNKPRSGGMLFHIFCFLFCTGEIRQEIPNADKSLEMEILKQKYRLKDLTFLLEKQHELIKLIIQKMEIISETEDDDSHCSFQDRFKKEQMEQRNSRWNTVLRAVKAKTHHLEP

As to `Cn1cnc2ncn(Cc3nn(CCCOc4cccc(Cl)c4)c(=O)o3)c(=O)c21` [compound 86, 1-([4-[3-(3-chlorophenoxy)propyl]-5-oxo-4,5-dihydro-1,3,4-oxadiazol-2-yl]methyl)-7-methyl-6,7-dihydro-1H-purin-6-one], the IC50 (commonly the concentration at which inhibition is half-maximal) is 22.6 nM. The same measure for `Cc1cnnc2ncn(Cc3nn(CCc4ccc(Cl)cc4)c(=O)o3)c(=O)c12` [compound 27, 3-(4-chlorophenethyl)-5-((4-methyl-5-oxopyridazino[3,4-d]pyrimidin-6(5H)-yl)methyl)-1,3,4-oxadiazol-2(3H)-one]: 49 nM. With `Cn1cnc2ncn(Cc3nn(CCc4ccc(Cl)c(-c5ccccc5)c4)c(=O)o3)c(=O)c21` [compound 42, 3-(2-(6-chlorobiphenyl-3-yl)ethyl)-5-((7-methyl-6-oxo-6H-purin-1(7H)-yl)methyl)-1,3,4-oxadiazol-2(3H)-one], the IC50 was 98 nM. On to `C[C@H](Cn1nc(Cn2cnc3ncn(C)c3c2=O)oc1=O)c1ccc(Cl)cc1` [compound 19, (S)-3-(2-(4-chlorophenyl)propyl)-5-((7-methyl-6-oxo-6H-purin-1(7H)-yl)methyl)-1,3,4-oxadiazol-2(3H)-one], for which the 50% inhibitory concentration (IC50) was found to be 34 nM. The same measure for `Cn1cnc2ncn(Cc3nn(CCc4ccc(C5CC5)cc4)c(=O)o3)c(=O)c21` [compound 16, 3-(4-cyclopropylphenethyl)-5-((7-methyl-6-oxo-6H-purin-1(7H)-yl)methyl)-1,3,4-oxadiazol-2(3H)-one]: 356 nM.

Consider `Cn1cnc2ncn(Cc3nn(C[C@H](F)c4ccc(OC(F)(F)F)cc4)c(=O)o3)c(=O)c21` (racemic) [compound 109, 5-[(7-methyl-6-oxo-purin-1-yl)methyl]-3-[rac-(2R)-2-fluoro-2-[4-(trifluoromethoxy)phenyl]ethyl]-1,3,4-oxadiazol-2-one], for which the IC50 is 19.1 nM. Consider `Cn1cnc2ncn(Cc3nn([C@H]4C[C@H](c5ccc(Br)cc5)C4)c(=O)o3)c(=O)c21` [compound 52, 3-[3-(4-bromophenyl)cyclobutyl]-5-[(7-methyl-6-oxo-purin-1-yl)methyl]-1,3,4-oxadiazol-2-one], for which the concentration for half-maximal inhibition (IC50) was determined as 20 nM.

As for `Cc1cnc(C#N)c2ncn(Cc3nn(CCc4ccc(Cl)cc4)c(=O)o3)c(=O)c12` [compound 43], the half-maximal inhibitory concentration (IC50) was found to be 18 nM. As for `Cn1cnc2ncn(Cc3nn([C@H]4C[C@H](c5ccc(F)cc5)C4)c(=O)o3)c(=O)c21` [compound 112, 3-[3-(4-fluorophenyl)cyclobutyl]-5-[(7-methyl-6-oxo-purin-1-yl)methyl]-1,3,4-oxadiazol-2-one], the IC50 stood at 64.8 nM. The same measure for `Cn1cnc2ncn(Cc3nn(CCc4ccc(OC(F)F)cc4)c(=O)o3)c(=O)c21` [compound 2, 3-(4-(difluoromethoxy)phenethyl)-5-((7-methyl-6-oxo-6H-purin-1(7H)-yl)methyl)-1,3,4-oxadiazol-2(3H)-one]: 211 nM. In the case of `Cn1cnc2c(C#N)nn(Cc3nn(CCc4ccc(OC(F)F)cc4)c(=O)o3)c2c1=O` [compound 32, 1-[(4-[2-[4-(difluoromethoxy)phenyl]ethyl]-5-oxo-4,5-dihydro-1,3,4-oxadiazol-2-yl)methyl]-6-methyl-7-oxo-1H,6H,7H-pyrazolo[4,3-d]pyrimidine-3-carbonitrile], the IC50 was determined as 36 nM. For `Cc1cc(C#N)nc2ncn(Cc3nn([C@H]4C[C@](F)(c5ccc(F)cc5)C4)c(=O)o3)c(=O)c12` [compound 61, 3-[[4-[3-fluoro-3-(4-fluorophenyl)cyclobutyl]-5-oxo-1,3,4-oxadiazol-2-yl]methyl]-5-methyl-4-oxo-pyrido[2,3-d]pyrimidine-7-carbonitrile], the IC50 amounted to 11.2 nM. The figure for `Cn1cnc2ncn(Cc3nn([C@H]4C[C@H](c5ccccc5)C4)c(=O)o3)c(=O)c21` [compound 51, 5-[(7-methyl-6-oxo-purin-1-yl)methyl]-3-(3-phenylcyclobutyl)-1,3,4-oxadiazol-2-one] is 168 nM; for `O=c1c2c(Cl)ccnc2ncn1Cc1nn([C@H]2C[C@H](c3ccc(Cl)cc3)C2)c(=O)o1` [compound 73, 5-[(5-chloro-4-oxo-pyrido[2,3-d]pyrimidin-3-yl)methyl]-3-[3-(4-chlorophenyl)cyclobutyl]-1,3,4-oxadiazol-2-one] it is 5.88 nM. The same measure for `Cn1cnc2ncn(Cc3nn(CCCOc4cccc(F)c4)c(=O)o3)c(=O)c21` [compound 74, 3-[3-(3-fluorophenoxy)propyl]-5-[(7-methyl-6-oxo-purin-1-yl)methyl]-1,3,4-oxadiazol-2-one]: 77.5 nM; for `COc1ccc(CCn2nc(Cn3cnc4ncn(C)c4c3=O)oc2=O)cc1` [compound 11, 3-(4-methoxyphenethyl)-5-((7-methyl-6-oxo-6H-purin-1(7H)-yl)methyl)-1,3,4-oxadiazol-2(3H)-one]: 278 nM. The figure for `Cc1ccnc2ncn(Cc3nn([C@@H]4CC[C@@H](c5ccc(F)cc5)C4)c(=O)o3)c(=O)c12` (racemic) [compound 67, 5-[(5-methyl-4-oxo-pyrido[2,3-d]pyrimidin-3-yl)methyl]-3-[rac-(1R,3R)-3-(4-fluorophenyl)cyclopentyl]-1,3,4-oxadiazol-2-one] is 4.76 nM; for `Cn1cnc2ncn(Cc3nn(CCc4ccc(Cl)cc4)c(=O)o3)c(=O)c21` [compound 1, 3-[2-(4-chlorophenyl)ethyl]-5-[(7-methyl-6-oxo-purin-1-yl)methyl]-1,3,4-oxadiazol-2-one] it is 95 nM.

`Cn1cnc2ncn(Cc3nn([C@H]4C[C@H](c5ccc(C#N)cc5)C4)c(=O)o3)c(=O)c21` [compound 71, 4-[3-[5-[(7-methyl-6-oxo-purin-1-yl)methyl]-2-oxo-1,3,4-oxadiazol-3-yl]cyclobutyl]benzonitrile]: the 50% inhibitory concentration (IC50) came out at 59.7 nM.

Consider `Cn1cnc2ncn(Cc3nn([C@H]4C[C@H](Oc5cccc(F)c5)C4)c(=O)o3)c(=O)c21` [compound 63, trans-3-[3-(3-fluorophenoxy)cyclobutyl]-5-[(7-methyl-6-oxo-purin-1-yl)methyl]-1,3,4-oxadiazol-2-one], for which the IC50 was 11.5 nM. The figure for `Cn1cnc2ncn(Cc3nn([C@H]4C[C@H](c5cccc(Cl)c5)C4)c(=O)o3)c(=O)c21` [compound 53, 3-[3-(3-chlorophenyl)cyclobutyl]-5-[(7-methyl-6-oxo-purin-1-yl)methyl]-1,3,4-oxadiazol-2-one] is 44 nM; for `Cc1ccnc2ncn(Cc3nn(CC(F)c4ccc(Cl)cc4)c(=O)o3)c(=O)c12` (stereo in doubt) [compound 34, 5-[(5-methyl-4-oxo-pyrido[2,3-d]pyrimidin-3-yl)methyl]-3-[(2S)-2-(4-chlorophenyl)-2-fluoro-ethyl]-1,3,4-oxadiazol-2-one] it is 5 nM. On to `Cn1cnc2ncn(Cc3nn(C[C@@H](F)c4ccc(Br)cc4)c(=O)o3)c(=O)c21` [compound 45, (S)-3-(2-(4-bromophenyl)-2-fluoroethyl)-5-((7-methyl-6-oxo-6H-purin-1(7H)-yl)methyl)-1,3,4-oxadiazol-2(3H)-one], for which the IC50 came out at 1200 nM. The figure for `O=c1c2cccnc2ncn1Cc1nn([C@@H]2CC[C@@H](c3ccc(F)cc3)C2)c(=O)o1` (racemic) [compound 78, 5-[(4-oxopyrido[2,3-d]pyrimidin-3-yl)methyl]-3-[rac-(1R,3R)-3-(4-fluorophenyl)cyclopentyl]-1,3,4-oxadiazol-2-one] is 40.6 nM; for `Cn1cnc2ncn(Cc3nn([C@@H]4CC[C@@H](c5cccc(F)c5)C4)c(=O)o3)c(=O)c21` (racemic) [compound 76, 5-[(7-methyl-6-oxo-purin-1-yl)methyl]-3-[rac-(1R,3R)-3-(3-fluorophenyl)cyclopentyl]-1,3,4-oxadiazol-2-one] it is 75.8 nM; for `Cc1ccnc2ncn(Cc3nn([C@H]4C[C@](F)(c5ccc(C#N)cc5)C4)c(=O)o3)c(=O)c12` [compound 77, 4-[1-fluoro-3-[5-[(5-methyl-4-oxo-pyrido[2,3-d]pyrimidin-3-yl)methyl]-2-oxo-1,3,4-oxadiazol-3-yl]cyclobutyl] benzonitrile] it is 21.4 nM.

As for `Cc1ccnc2ncn(Cc3nn([C@H]4C[C@@](F)(c5ccc(C(F)(F)F)cc5)C4)c(=O)o3)c(=O)c12` [compound 99, 3-[3-fluoro-3-[4-(trifluoromethyl)phenyl]cyclobutyl]-5-[(5-methyl-4-oxo-pyrido[2,3-d]pyrimidin-3 yl)methyl]-1,3,4-oxadiazol-2-one], the 50% inhibitory concentration (IC50) came out at 57.3 nM.

Regarding `Cc1cc(C#N)nc2ncn(Cc3nn(CCc4ccc(Cl)cc4)c(=O)o3)c(=O)c12` [compound 28, 3-((4-(4-chlorophenethyl)-5-oxo-4,5-dihydro-1,3,4-oxadiazol-2-yl)methyl)-5-methyl-4-oxo-3,4-dihydropyrido[2,3-d]pyrimidine-7-carbonitrile], the IC50 amounted to 9 nM.

Regarding `Cn1c(=O)ccc2ncn(Cc3nn(C[C@H](F)c4ccc(Cl)cc4)c(=O)o3)c(=O)c21` (racemic) [compound 87, 5-methyl-3-[[5-oxo-4-[rac-(2R)-2-(4-chlorophenyl)-2-fluoro-ethyl]-1,3,4-oxadiazol-2-yl]methyl]pyrido[3,2-d]pyrimidine-4,6-dione], the IC50 is 43.8 nM. The same measure for `Cc1ccc(CCn2nc(Cn3cnc4ncn(C)c4c3=O)oc2=O)cc1` [compound 31, 5-[(7-methyl-6-oxo-purin-1-yl)methyl]-3-[2-(p-tolyl)ethyl]-1,3,4-oxadiazol-2-one]: 126 nM; for `Cc1ccnc2ncn(Cc3nn([C@H]4C[C@](F)(c5cccc(F)c5)C4)c(=O)o3)c(=O)c12` [compound 75, 3-[3-fluoro-3-(3-fluorophenyl)cyclobutyl]-5-[(5-methyl-4-oxo-pyrido[2,3-d]pyrimidin-3-yl)methyl]-1,3,4-oxadiazol-2-one]: 40.5 nM.
